The RepoRT retention time repository (doi:10.1016/j.foodchem.2021.129757)

Key:
Settings in all cases: stereoisomer not certain
[1] = RP, Phenomenex Kinetex EVO C18, 100 × 2.1 mm, 2.6 µm, 40 °C, 0.4 mL/min, estimated dead time 0.55 min; A: water + 0.2% formic acid; B: acetonitrile + 0.2% formic acid; gradient (min/%B) 0/5 0.5/5 7/95 8/95 8.5/5 12/5
[2] = RP, Phenomenex Synergi Hydro-RP, 250 × 2 mm, 4 µm, 25 °C, 0.2 mL/min, estimated dead time 2.5 min; A: water + 0.1% formic acid, pH 3; B: acetonitrile + 0.1% formic acid, pH 3; gradient (min/%B) 0/0.5 7/0.5 12/12.5 25/16.3 47/35 48/65 50/65 50.1/0.5
[3] = RP, 150 × 2.1 mm, 2.6 µm, 40 °C, 0.35 mL/min, estimated dead time 0.94 min; A: water + 0.1% formic acid, pH 3; B: acetonitrile + 0.1% formic acid, pH 3; gradient (min/%B) 0/0 1/0 12.5/100 14/100 14.2/0 15/0
[4] = RP, 150 × 2.1 mm, 2.6 µm, 40 °C, 0.35 mL/min, estimated dead time 0.94 min; A: water + 0.1% formic acid, pH 3; B: acetonitrile + 0.1% formic acid, pH 3; gradient (min/%B) 0/0 1/5 7/45 8.5/80 10.5/80 11/5 12/5
[5] = RP, Waters ACQUITY UPLC BEH Shield RP18, 150 × 2.1 mm, 1.7 µm, 40 °C, 0.4 mL/min, estimated dead time 0.83 min; A: water + 0.1% formic acid, pH 3; B: acetonitrile + 0.1% formic acid, pH 3; gradient (min/%B) 0/0 30/50 31/100 37/100 37.1/0
[6] = RP, Waters ACQUITY UPLC HSS T3, 100 × 2.1 mm, 50 °C; A: water + 0.1% formic acid, pH 3; B: 30% methanol + 70% acetonitrile + 0.1% formic acid, pH 3; gradient (min/%B) 0/5 1/8 2/15 3/40 4/70 4.5/100 5/100 6.4/100 6.6/5 6.8/5 7/5
[7] = RP, Agilent ZORBAX Eclipse XDB-C18, 100 × 2.1 mm, 1.8 µm, 50 °C, 0.4 mL/min, estimated dead time 0.55 min; A: water + 0.1% formic acid, pH 3; B: methanol + 0.1% formic acid, pH 3; gradient (min/%B) 0/2 10/100 14.5/100 14.51/2 16.5/2
[8] = RP, Waters ACQUITY UPLC HSS T3, 100 × 2.1 mm, 1.8 µm, 30 °C, 0.4 mL/min, estimated dead time 0.55 min; A: water + 0.1% formic acid, pH 3; B: acetonitrile + 0.1% formic acid, pH 3; gradient (min/%B) 0/0 2/0 15/100 22/100 22.1/0 26/0
[9] = RP, Waters ACQUITY UPLC BEH C18, 100 × 2.1 mm, 1.7 µm, 65 °C, 0.4 mL/min, estimated dead time 0.55 min; A: water + 0.1% formic acid, pH 3; B: 80% acetonitrile + 20% acetone + 0.1% formic acid, pH 3; gradient (min/%B) 0/0 5/100 5.5/0 6/0

COc1cc(C=CC(=O)NCC(=O)O)ccc1O [Feruloylglycine]
LC retention time [1]: 4.33 min

CC1OC(OCC2OC(Oc3c(-c4ccc(O)cc4)oc4cc(O)cc(O)c4c3=O)C(O)C(O)C2O)C(O)C(O)C1O (configuration not stated) [Kaempferol 3-O-rutinoside]
LC retention time [2]: 37 min | LC retention time [3]: 5.78 min | LC retention time [4]: 5.92 min

O=C1CCC(Cc2ccc(O)c(OS(=O)(=O)O)c2)O1 (configuration not stated) [5-(4'-Hydroxyphenyl)-gamma-valerolactone-3'-sulfate]
LC retention time [1]: 4.64 min

O=c1c(OC2OC(CO)C(O)C(O)C2O)c(-c2ccc(O)c(O)c2)oc2cc(O)cc(O)c12 (configuration not stated) [Quercetin-3-O-galactoside]
LC retention time [3]: 5.66 min | LC retention time [4]: 5.74 min

O=C(O)c1ccc(OC2OC(C(=O)O)C(O)C(O)C2O)cc1 (configuration not stated) [Hydroxybenzoic acid-4-glucuronide]
LC retention time [1]: 1.06 min

NCC(=O)c1ccccc1 [2 aminoacetophenone]
LC retention time [3]: 6.84 min | LC retention time [4]: 6.86 min

O=C(O)C(O)CCc1ccccc1 (configuration not stated) [2-hydroxy-4-phenylbutyric acid]
LC retention time [3]: 6.54 min | LC retention time [4]: 6.6 min

O=c1c(OC2OC(CO)C(O)C(O)C2O)c(-c2ccc(O)cc2)oc2cc(O)cc(O)c12 (configuration not stated) [Kaempferol-3-O-glucoside]
LC retention time [5]: 14.7 min | LC retention time [3]: 5.95 min | LC retention time [4]: 6.11 min

O=C1CCC(Cc2cc(O)cc(O)c2)O1 (configuration not stated) [5-(3',5'-Dihydroxyphenyl)-gamma-valerolactone]
LC retention time [1]: 3.72 min

O=C(O)CCCc1c[nH]c2ccccc12 [3-Indolebutyric acid]
LC retention time [3]: 7.63 min | LC retention time [4]: 7.97 min

COc1cc(CCC(=O)O)cc(OC)c1OC [3-(3,4,5-Trimethoxyphenyl)propionic acid]
LC retention time [3]: 6.58 min | LC retention time [4]: 6.73 min

O=C1CC(c2ccc(O)cc2)Oc2cc(OC3OC(CO)C(O)C(O)C3O)cc(O)c21 (configuration not stated) [Naringenin 7-O-glucoside]
LC retention time [3]: 6.02 min | LC retention time [4]: 6.17 min

COc1cc(-c2oc3cc(O)cc(O)c3c(=O)c2O)ccc1OC1OC(C(=O)O)C(O)C(O)C1O (configuration not stated) [Isorhamnetin 4'-O-glucuronide]
LC retention time [6]: 3.58 min | LC retention time [3]: 6.03 min | LC retention time [4]: 6.21 min

COc1cc(-c2oc3cc(O)cc(O)c3c(=O)c2OC2OC(CO)C(O)C(O)C2O)cc(OC)c1O (configuration not stated) [Syringetin-3-glucoside]
LC retention time [3]: 6 min | LC retention time [4]: 6.17 min

COC(=O)Cc1c[nH]c2ccccc12 [Methyl indole acetate]
LC retention time [3]: 8.01 min | LC retention time [4]: 8.34 min

O=C1CCC(Cc2ccc(O)c(O)c2)O1 (configuration not stated) [5-(3',4'-Dihydroxyphenyl)-gamma-valerolactone]
LC retention time [1]: 4.13 min

O=C1CC(c2ccc(OC3OC(C(=O)O)C(O)C(O)C3O)cc2)Oc2cc(O)cc(O)c21 (configuration not stated) [Naringenin-4'-O-glucuronide]
LC retention time [1]: 5.18 min

COc1cc2c(CCNC(C)=O)c[nH]c2cc1O [6-Hydroxymelatonin]
LC retention time [3]: 5.14 min | LC retention time [4]: 5.05 min

Cn1c(=O)c2c(ncn2C)n(C)c1=O [Caffeine]
LC retention time [7]: 3.67 min | LC retention time [2]: 21.3 min | LC retention time [6]: 3.1 min | LC retention time [8]: 8.11 min | LC retention time [9]: 1.67 min

O=C(O)c1ccc(OS(=O)(=O)O)cc1 [Hydroxybenzoic acid-4-sulfate]
LC retention time [1]: 2.55 min

COc1cccc(O)c1O [3-Methoxycatechol]
LC retention time [7]: 3.2 min | LC retention time [3]: 4.79 min | LC retention time [4]: 4.56 min

O=C(O)CNC(=O)c1ccco1 [2-Furoylglycine]
LC retention time [3]: 2.51 min | LC retention time [4]: 2.35 min | LC retention time [9]: 1.51 min

O=C(O)c1cc(=O)c2ccccc2[nH]1 [kynurenic acid]
LC retention time [3]: 4.3 min | LC retention time [4]: 4.06 min

NCCc1c[nH]c2ccc(O)cc12 [Serotonin]
LC retention time [3]: 1.54 min | LC retention time [4]: 1.45 min

O=C(O)c1ccc(O)c(OS(=O)(=O)O)c1 [protocatechuic acid-3-O-sulfate]
LC retention time [1]: 2.38 min

COc1ccc2[nH]cc(CC(=O)O)c2c1 [5-Methoxyindoleacetic acid]
LC retention time [3]: 6.26 min | LC retention time [4]: 6.29 min
